Results reported in patent US11066398B2, “Small molecule c-Myc inhibitors” (THE SCRIPPS RESEARCH INSTITUTE, priority 2013, dated 2021).
In brackets after ≈: the same amount, converted by molar mass. Entries after “also recorded” stand apart in the source; their conditions may differ. Like-named read-outs stand apart in the source and are kept apart here.

Key:
[1] = test system: QEF oncogenically transformed by the v-jun oncogene (VJ); details: 25 or 50 μM, 24 hrs
SW-480 = details: SW-480, 25 or 50 μM, 24 hrs
MAX homodimerization = MAX homodimerization (Homo sapiens, UniProt P61244); details: HEK293 cells, 20 μM
Chain of MAX homodimerization (P61244 whole entry): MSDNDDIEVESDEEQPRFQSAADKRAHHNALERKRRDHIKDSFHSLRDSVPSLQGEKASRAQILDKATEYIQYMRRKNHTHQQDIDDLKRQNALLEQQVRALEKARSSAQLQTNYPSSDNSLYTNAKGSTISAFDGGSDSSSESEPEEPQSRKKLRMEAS
Procedure: (§5) We used an efficient and sensitive PCA biosensor which is based on the PPI involving the full length MAX protein and the C-terminal MAX-interaction-domain in MYC (MYC^332-439).
(§6) HEK293 cells were grown in Dulbecco's Modified Eagle's Medium (DMEM) supplemented with 10% fetal bovine serum (FBS). The indicated Rluc-PCA expression constructs were transiently overexpressed in a 24-well plate format. […] Following treatment, the growth medium was exchanged and cells were resuspended in phosphate buffered saline (PBS). Cell suspensions were transferred to white walled 96-well plates and were subjected to bioluminescence analysis using the LMax II 384 luminometer (Molecular Devices). Rluc bioluminescence signals were integrated for 10 sec following addition of the Rluc substrate benzyl-coelenterazine to intact cells (5 μM; Nanolight).

NCI-H460 = details: NCI-H460, 72 hrs, 2.5% FBS
[2] = test system: Burkitt's lymphoma cell lines (Akata, Ramos, Raji); details: 72 hours
Procedure: (A) Akata, (B) Ramos, (C) Raji. 10^3 cells were seeded per well on 96-well plates and were treated with the indicated concentrations of KJ-Pyr-9 for 72 hours. Cell proliferation was determined by resazurin fluorescence.

MYC = test: Myc levels by Western blot in MDA-MB-231 and NCI-H460 cells; type: cell-based, human; details: 20 μM, 24 hrs
Procedure: (§1) NCI-H460 cells were grown in RPMI medium, and MDA-MB-231 cells were grown in DMEM medium; both media contained 10% FBS. KJ-Pyr-9 and 10058-F4 were added at a concentration of 20 μM and the cells were treated for 24 hrs before Western blot analysis.
(§2) Interference with Myc transcriptional activity of Myc affects the transcription of a large number of target genes and can function as activator or repressor. […] NDRG1 is a direct transcriptional target of Myc that acts as a repressor of this gene. For comparison, we used the previously identified inhibitor of MYC-MAX dimerization that binds to the disordered monomer and prevents Myc from adopting a conformation needed for the interaction with MAX (Wang et al., Mol. Cancer Ther. 6:2399-2408, 2007; and Huang et al., Exp. Hematol. 34:1480-1489, 2006). Both KJ-Pyr-9 and 10058-F4 cause an increase of NDRG1 expression (FIG. 4).

MDA-MB-231 = details: MDA-MB-231, 216 hrs, 2.5% FBS
K-562 = details: K-562, 25 or 50 μM, 24 hrs
[3] = test system: cells transformed by v-myc (Q8, QEF/MC29)
human fibroblasts (hFB) = details: 25 or 50 μM, 24 hrs
[4] = test system: QEF transformed by methylcholanthrene (QT6); details: 25 or 50 μM, 24 hrs
HL-60 = details: HL-60, 25 or 50 μM, 24 hrs
ATG-Myc = ATG-Myc (Homo sapiens, UniProt P01106); test: Myc-induced oncogenic transformation (focus assay) in chicken embryo fibroblasts; type: cell-based
Chain of ATG-Myc (P01106 whole entry): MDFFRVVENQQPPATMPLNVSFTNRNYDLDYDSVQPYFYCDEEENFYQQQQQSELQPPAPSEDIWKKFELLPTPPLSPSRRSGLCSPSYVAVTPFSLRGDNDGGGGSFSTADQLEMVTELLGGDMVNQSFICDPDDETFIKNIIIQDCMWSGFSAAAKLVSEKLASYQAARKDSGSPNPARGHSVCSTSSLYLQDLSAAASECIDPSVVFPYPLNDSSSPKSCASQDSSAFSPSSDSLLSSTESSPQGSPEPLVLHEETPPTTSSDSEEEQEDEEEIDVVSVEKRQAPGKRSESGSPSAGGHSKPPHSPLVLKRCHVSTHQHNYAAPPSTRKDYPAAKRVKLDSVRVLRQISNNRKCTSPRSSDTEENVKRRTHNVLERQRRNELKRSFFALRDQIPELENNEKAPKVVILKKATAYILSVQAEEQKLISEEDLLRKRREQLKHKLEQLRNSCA

MYC^332-439 with MAX = MYC^332-439 with MAX (Homo sapiens, UniProt P01106); details: HEK293 cells, 20 μM, compared to PKA RII:RII control biosensor
Chain of MYC^332-439 with MAX (P01106 347-454): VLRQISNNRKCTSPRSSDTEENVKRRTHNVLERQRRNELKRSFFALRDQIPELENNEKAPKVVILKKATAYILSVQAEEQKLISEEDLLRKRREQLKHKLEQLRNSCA
Procedure: as §5, §6

[5] = test system: xenograft of MDA-MB-231 cells; test: MDA-MB-231 xenograft in nude mice; type: in vivo, mouse; details: 10 mg/kg daily i.p.
Procedure: When tumors reached a volume of 100 mm^3 half of the mice were given daily i.p. injections of 10 mg/kg KJ-PYR-9 and the other half received vehicle only. Tumor growth was followed for 31 days. (A) Tumor volumes of treated and untreated animals. (B) Tumor weights of treated and untreated animals. (C) Time course of tumor volumes.
To test the in vivo effectiveness of KJ-Pyr-9, nude mice received a xenograft of MDA-MB-231 cells suspended in Matrigel and injected subcutaneously into the left and right flanks. When the tumors had reached an average volume of 100 mm^3, mice were treated daily with 10 mg/kg KJ-Pyr-9 or vehicle control by intraperitoneal injection for 31 days. […] At the conclusion of the experiment the tumors were extracted and weighed. […] Treatment with KJ-Pyr-9 had no effect on the body weight of the animals.
Xenograft experiments. […] Tumor volume and mouse weight were measured daily. […] Tumors were weighed.
Statistical methods. Tumor volumes were calculated using (length)×(width)^2. Tumor volumes were evaluated using Efron's Bootstrap (ISBN:0412042312) procedures as implemented in the R statistics program (Wu and Houghton, J. Biopharma. Stat. 19:755-762, 2009). Mean volumes and 90% confidence intervals were determined using bootstrap resampling with 10^6 randomizations and graphed using the ggplot2 package (ISBN:0387981403). P-values were determined using the resampling permutation method with 10^6 randomizations.

MOLT-4 = details: MOLT-4, 25 or 50 μM, 24 hrs
SUM-159PT = details: 120 hrs, 2.5% FBS
[6] = Pharmacokinetics and tolerability in mice; type: in vivo, mouse; details: for concentration at 4 h: ip, mice, 10 mg/kg intraperitoneally
Procedure: (§3) In vivo activity of KJ-Pyr-9: Previous Myc inhibitors have not been effective in animal model studies. These failures resulted from insufficient affinity toward Myc and poor pharmacokinetic properties.
(§4) Pharmacokinetics. Three mice were injected with 10 mg/kg KJ-Pyr-9 dissolved in 10:10:80 Tween-80:DMSO:5% Dextrose/water intraperitoneally. At 4 hours concentrations of KJ-Pyr-9 in the plasma and in the brain were 3.5 and 12.4 μM respectively. Rats were dosed with 1 mg/kg i.v.; elimination half lives in plasma were approximately 1.84 h (rats).

[7] = test system: NDRG1 (N-myc downregulated gene 1); test: NDRG1 expression by Western blot in MDA-MB-231 and NCI-H460 cells; type: cell-based, human; details: 20 μM, 24 hrs
Procedure: as §1, §2

v-Jun = v-Jun (Avian sarcoma virus, UniProt P05411); details: CEF, dose response
Chain of v-Jun (P05411 whole entry): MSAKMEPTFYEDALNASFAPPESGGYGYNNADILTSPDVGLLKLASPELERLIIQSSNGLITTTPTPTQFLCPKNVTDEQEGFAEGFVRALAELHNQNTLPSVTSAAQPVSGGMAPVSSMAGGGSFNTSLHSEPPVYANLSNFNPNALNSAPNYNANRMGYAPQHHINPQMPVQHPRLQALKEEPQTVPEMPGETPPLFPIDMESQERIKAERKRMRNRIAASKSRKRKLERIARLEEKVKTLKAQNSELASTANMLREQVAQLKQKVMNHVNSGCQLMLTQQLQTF
Procedure: (§7) Data from a representative experiment conducted with the cells derived from a single chicken embryo.
(§8) The assay of oncogene-induced cellular transformation in CEF was also used to determine selectivity of KJ-Pyr-9 for Myc.
(§9) Assay for oncogenic transformation in cell culture. […] CEF were infected with a series of ten-fold dilutions of the indicated virus. Compounds were added to the nutrient agar overlay. Additional compound-containing overlay was added every 3 days until experimental end point.

Solubility in water = type: physicochemical
v-Src = v-Src (Rous sarcoma virus subgroup A, UniProt P00524); details: CEF, dose response
Chain of v-Src (P00524 whole entry): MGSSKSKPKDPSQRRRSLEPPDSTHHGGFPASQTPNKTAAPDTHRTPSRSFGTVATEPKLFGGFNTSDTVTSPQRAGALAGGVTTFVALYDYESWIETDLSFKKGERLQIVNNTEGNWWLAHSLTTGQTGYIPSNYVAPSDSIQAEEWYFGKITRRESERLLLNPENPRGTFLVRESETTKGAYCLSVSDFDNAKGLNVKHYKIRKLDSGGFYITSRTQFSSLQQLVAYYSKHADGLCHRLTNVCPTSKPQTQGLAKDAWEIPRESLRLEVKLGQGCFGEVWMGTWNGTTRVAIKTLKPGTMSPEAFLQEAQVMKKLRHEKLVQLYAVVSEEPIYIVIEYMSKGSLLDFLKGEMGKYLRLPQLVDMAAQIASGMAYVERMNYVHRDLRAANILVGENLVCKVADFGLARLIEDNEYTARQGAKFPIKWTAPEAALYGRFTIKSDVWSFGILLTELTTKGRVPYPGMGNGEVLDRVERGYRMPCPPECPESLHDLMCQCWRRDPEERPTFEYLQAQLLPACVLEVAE
Procedure: as §7, §8, §9

NDRG1 = details: 10 mg/kg daily i.p., Western blot of frozen tumor samples
Procedure: In order to determine drug activity in tumor cells, protein lysates were prepared from frozen tumor samples and analyzed by Western blot.
Xenograft experiments. […] Cells were suspended in high concentration Matrigel (BD Biosciences) prior to injection. Xenograft tumors were allowed to grow until the average volume of the tumors reached 100 mm^3 as measured by external calipers. At this point, the mice were divided into two groups. […] Tumor volume and mouse weight were measured daily. Vehicle used in all cases was 10:10:80 DMSO:Tween-80:5% dextrose in water. The mice were treated for a period of 31 days. At the end of the experiment, the mice were euthanized and tumors excised. Tumors were weighed. Samples of each tumor were fixed in formalin for histology and frozen for Western blotting. All vertebrate experiments were conducted with the approval of the TSRI IACUC.

N-Myc = N-Myc (Homo sapiens, UniProt P04198); details: CEF, dose response
Chain of N-Myc (P04198 whole entry, species assumed): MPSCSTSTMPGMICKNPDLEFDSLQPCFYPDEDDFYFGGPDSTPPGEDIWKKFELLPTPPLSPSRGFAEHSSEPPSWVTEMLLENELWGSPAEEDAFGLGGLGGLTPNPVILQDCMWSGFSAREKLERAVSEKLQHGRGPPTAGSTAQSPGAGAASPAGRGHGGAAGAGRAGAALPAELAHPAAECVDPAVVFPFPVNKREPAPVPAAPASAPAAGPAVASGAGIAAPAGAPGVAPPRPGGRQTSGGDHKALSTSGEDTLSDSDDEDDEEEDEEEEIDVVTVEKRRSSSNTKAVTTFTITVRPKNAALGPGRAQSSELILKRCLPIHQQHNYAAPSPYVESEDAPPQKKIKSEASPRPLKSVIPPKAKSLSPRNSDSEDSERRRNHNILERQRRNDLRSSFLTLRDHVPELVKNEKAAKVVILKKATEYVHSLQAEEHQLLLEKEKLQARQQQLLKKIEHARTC
Procedure: as §7, §8, §9

Pharmacokinetics in rats = type: in vivo, rat; details: 1 mg/kg i.v.
Procedure: as §3, §4

[8] = test system: normal quail embryo fibroblasts (QEF); details: 25 or 50 μM, 24 hrs

For `NC(=O)c1ccc(-c2cc(-c3ccc([N+](=O)[O-])cc3)nc(-c3ccco3)c2)cc1` [CG-RS-44, 4-(2-(furan-2-yl)-6-(4-nitrophenyl)pyridin-4-yl)benzamide], the Cell growth [1] was “only slightly impaired in their growth”, the Cell proliferation (SW-480) was “not affected” and the “MAX homodimerization (Rluc PCA)” value (MAX homodimerization) was “interfered with MAX homodimerization, albeit to a lesser degree”. For the same compound, the Cell proliferation (NCI-H460) was “inhibited”, the Cell proliferation [2] was “very sensitive” and the “Effect on Myc levels” value (MYC) was “only a slight effect”. For the same compound, the Cell proliferation (MDA-MB-231) was “inhibited”, the Cell proliferation (K-562) was “strongly inhibited” and the Cell growth [3] was “significantly more affected”. For the same compound, the Cell proliferation (human fibroblasts (hFB)) was “not affected”, the Cell growth [4] was “only slightly impaired in their growth” and the Cell proliferation (HL-60) was “strongly inhibited”. For the same compound, the “Dose dependence of inhibition of ATG-Myc focus formation” value (ATG-Myc; 0-20 μM (0, 1.25, 2.5, 5, 10, and 20 μM)) was “dose-dependent inhibition”, the “Comparison of IC50 values for ATG-Myc focus formation” value (ATG-Myc; CEF assay) was “better than all analogs tested” and the “Inhibition of ATG-Myc focus formation” value (ATG-Myc; CEF focus assay, concentration of 10 μM) was “no foci formation”. The “Inhibition of Myc oncogenic activity in CEF transformation assay” value (ATG-Myc; CEF, ATG-Myc, listed as KJ-Pyr-9) was “effective; also recorded: strongly inhibited”, the “Complex formation of MYC^332-439 with MAX (Rluc PCA)” value (MYC^332-439 with MAX) was “selectively reduced complex formation” and the “Body weight of the animals” value ([5]; 31 days) was “no effect”. For the same compound, the Tumor volume ([5]; by day 31) was “had not increased significantly”, the Tumor weight ([5]; end of experiment (31 days)) was “halt tumor growth” and the “Onset of inhibition of tumor growth” value ([5]; nude mice) was “noted after eight days of treatment”. The Cell proliferation (MOLT-4) was “strongly inhibited”, the Cell proliferation (SUM-159PT) was “inhibited” and the Acute toxicity ([6]; dose of 10 mg/kg) was “no signs of acute toxicity”. For the same compound, the concentration at 4 h ([6]; mouse, brain, read-out: Concentration in the brain) was 12.4 µM, the “Blood brain barrier penetration” value ([6]; mouse, in vivo) was “crossed the blood brain barrier” and the “Brain versus blood concentration” value ([6]; mouse, in vivo) was “higher concentrations in brain tissue than in the blood”. For the same compound, the concentration at 4 h ([6]; mouse, plasma, read-out: Concentration in the plasma) was 3.5 µM, the NDRG1 expression [7] was “increase” and the “Inhibition of oncogenic transformation by v-Jun” value (v-Jun) was “inhibited at significantly higher concentrations”. For the same compound, the solubility (Solubility in water) was 12.5 µM (≈ 4.82 µg/mL), the “Inhibition of oncogenic transformation by v-Src” value (v-Src) was “unaffected” and the “Expression of NDRG1 in tumor lysates” value (NDRG1) was “significantly enhanced”. For the same compound, the “Inhibition of oncogenic activity of N-Myc” value (N-Myc) was “strongly inhibited”, the “Elimination half life in plasma” value (Pharmacokinetics in rats) was “approximately 1.84 h” and the Cell growth [8] was “only slightly impaired in their growth”.
